Experimental data reported in patent publication US12168781B2, “Production method for T cells or NK cells, medium for culturing T cells or NK cells, method for culturing T cells or NK cells, method for maintaining undifferentiated state of undifferentiated T cells, and growth-accelerating agent for T cells or NK cells” (KIRIN HOLDINGS KABUSHIKI KAISHA, priority 2018, dated 2024).

Key:
[1] = test system: regulatory T cells (Treg); assay: Proliferation of regulatory T cells (number of FoxP3-positive cells); type: cell-based, human; settings: 1 μM, 6 days, CD3 T cells of 3 healthy donors, FIG. 17
Description: The usefulness of berbamine (BBM) in the proliferation of regulatory T cells (Treg) was verified. As a method therefor, CD3 T cells were purified from PBMCs (CTL, Inc.) derived from 3 healthy donor subjects in the same manner as in additional Example 6 and cultured for 6 days. After culturing for 6 days, the number of viable cells was counted by a trypan blue method and the ratio of CD25(+)FoxP3(+) cells was analyzed by FACS.
In the FACS, the cultured cells were sorted into facs tubes, washed with a staining solution (PBS containing 2% FBS), and then stained with CD3-APC (BioLegend, 300421), CD4-BV510 (BioLegend, 317444), CD8-Pacific Blue (BD 558207), and CD25-FITC (BioLegend, 302604).
After the cells were further washed, intracellular staining was performed using FoxP3/Transcription Factor Staining Buffer Set (eBioscience, 00-5523) and FoxP3-PE (eBioscience, 12-4776-41), and measurement was performed using a BD LSRFortessa cytometer (BD Bioscience).
The value obtained by multiplying the positive rate of FoxP3(+) cells in the CD4(+) cells analyzed by FlowJo 9 by the number of viable cells was defined as the number of FoxP3-positive cells.

CD8 T cells = assay: Engraftment into mice of CD8 T cells cultured with the compound; type: in vivo; settings: cells cultured 10 days with 1 μM, two weeks after transplantation into NSG mice, FIG. 19(B)
Description: The effect of cells cultured with berbamine on engraftment into mice was examined. As a method therefor, CD8 T cells were purified from PBMCs (CTL, Inc.) derived from a healthy subject using CD8 T Cell Isolation Kit, human (Miltenyi, 130-096-495). The purified CD8 T cells (20,000 cells/well) were seeded, and berbamine (BBM) at 1 μM or MilliQ water that is a solvent for the compound as a control was added thereto, and the cells were cultured in the same culture medium by the same stimulation method as in additional Example 6, and the cells cultured for 10 days were used as cells to be transplanted. NSG male mice at 6 to 11 weeks of age (Charles River Japan) were used as experimental animals and transplantation was performed through the tail vein (approximately 4×10^6 cells). Two weeks after the transplantation, the spleen, peripheral blood and bone marrow were collected, and the CD8β and CD45 positive rates were analyzed by FACS. In the FACS, after the spleen and bone marrow were subjected to a homogenization treatment, and the peripheral blood was subjected to a hemolysis treatment, the resulting materials were transferred to a 96-well plate, followed by washing with a staining solution (PBS containing 2% FBS), and then staining with CD8β-PE-cy7 (eBioscience, 25-5273-42) and CD45-APC-Cy7 (BioLegend, 304014). After washing, the cells were resuspended in the staining solution containing PI. An analysis was performed using a BD LSR Fortessa cytometer (BD Bioscience). The positive rate of CD8β(+)CD45(+) cells in the PI-negative cell population analyzed by FlowJo 9 was measured. Note that in a statistical analysis, a Student's t-test was used (*: p<0.05).

COc1cc2c3cc1Oc1c(OC)c(OC)cc4c1[C@@H](Cc1ccc(O)c(c1)Oc1ccc(cc1)C[C@@H]3N(C)CC2)N(C)CC4 [berbamine]
number of FoxP3-positive cells compared with MilliQ water [1]: increase in the number of FoxP3-positive cells | positive rate of CD8β(+)CD45(+) cells (engraftment) compared with cells cultured with MilliQ water (CD8 T cells; bone marrow): significant engraftment | positive rate of CD8β(+)CD45(+) cells (engraftment) compared with cells cultured with MilliQ water (CD8 T cells; peripheral blood): significant engraftment | positive rate of CD8β(+)CD45(+) cells (engraftment) compared with cells cultured with MilliQ water (CD8 T cells; spleen): significant engraftment
